Data taken from US8552018B2, “Substituted tricyclic compounds as protein kinase inhibitors” (Arizona Board of Regents on behalf of the University of …, priority 2003, dated 2013).
Where two headings read alike, the source gives them in different places.

Legend:
[1] = test system: A549 non-small cell lung cancer (NSCLC) cells; experiment: Flow cytometric analysis (sub-G1 peak); assay type: cell-based; conditions: A549, 48 hours, MP-470 alone
Method: (§1) In addition, A549 non-small cell lung cancer (NSCLC) cells and LNCaP prostate carcinoma cells were treated with MP-470 in the presence or absence of Tarceva® for 48 hours and subjected to flow cytometric analysis. Nocodazole was also included to induce a G2/M arrest, in an effort to determine if these compounds could overcome such a block. Left-hand columns for each cell type represent cells with no additional treatment, while right-hand columns represent cells pretreated overnight with nocodazole (0.3 ug/mL) to induce G2/M arrest.

[2] = test system: LNCaP prostate carcinoma cells; experiment: Flow cytometric analysis (sub-G1 peak); assay type: cell-based; conditions: 48 hours, MP-470 alone
Method: as §1

[3] = test system: LNCaP prostate cells; experiment: MTT assay; assay type: cell-based; conditions: Homo sapiens, read-out: IC50 (cell survival reduced to 50% of vehicle-treated controls), FIG. 30
Method: An MTT assay was performed to determine the number of viable cells in each well for each concentration of compound, and also for a set of vehicle controls (DMSO).

[4] = test system: mutant forms of PDGFR; experiment: Activity against mutant PDGFR (stated); assay type: biochemical
[5] = test system: pancreatic cancer cell lines MIAPaCa-2 and PANC-1; experiment: Cancer cell cytotoxicity assay, range over both pancreatic lines; assay type: cell-based; conditions: potency order
Method: To validate the hypothesis that the designed c-kit/PDGFR tyrosine kinase inhibitors mediate GIST882 cell killing and PDGFR-mediated cell killing of pancreatic cancer cell lines (CFPAC-1, PANC-1 and MIA PaCa-2), an in vitro cytotoxicity assay was performed. The GIST882 cell line used in this study has a c-kit gain-of-function mutation (K642E). […] First the cells were cultured. GIST882 cells were provided by Dr. Jonathan A. Fletcher (Dana-Farber Cancer Institute, Boston, Mass.). PANC-1 and MIAPaCa-2 cells were provided by Dr. Daniel Von Hoff (Arizona Cancer Center, Tucson, Ariz.). […] All the cell lines were incubated in a humidified incubator at 37° C. with 5% CO2 atmosphere.
After incubation for 4 days at 37° C. in a humidified incubator, the cells were fixed with 10% Trichloroacetic acid solution (Catalog No. 490-10, Sigma). Subsequently, they were labeled with 0.04% Sulforhodamine B (S9012, Sigma) in 1% acetic acid. […] The absorbance of each well was read on a plate reader (Wallac Vector^2, PerkinElmer) at the wavelength of 570 nm. Data were expressed as the percentage of survival of control calculated from the absorbance corrected for background absorbance. The surviving percent of cells was determined by dividing the mean absorbance values of the […] by the mean absorbance values of the control and multiplying by 100.

[6] = test system: Akt phosphorylation in NIH 3T3 cells; experiment: Immunoblot for phospho-Akt (S473); assay type: cell-based
Method: In order to evaluate these effects at the cellular level, immunoblot analysis was performed on lysates from cells treated with MP470, with or without the addition of the EGFR inhibitor Tarceva®. Lysates were assayed for general tyrosine kinase activity, as well as the specific phosphorylation of c-Met and Akt. Briefly, NIH 3T3 cells were pretreated with drugs as indicated for 4 hours, then treated with pervanadate for a further 30 minutes. Immunoblot detection was carried out with antibodies for phosphotyrosine, phospho-Met and phospho-Akt (S473), as well as total c-Met and Akt. Beta-actin was used as a loading control.

[7] = test system: Panc-1 pancreatic cancer cells; experiment: Apoptosis assay (Annexin V or TUNEL); assay type: cell-based; conditions: Panc1, 10 μM
Method: (§2) Induction of apoptosis in cancer cells is a common mechanism of action for anti-cancer agents. To determine the role of MP470 in apoptosis, tumor cells were incubated with either compound and analyzed for apoptosis using Annexin V or TUNEL assays. […] In MiaPaCa-2 cells, MP470 at […] induced 81.4% apoptosis, while at 1 μM it induced 71% apoptosis. In Panc1 cells, MP470 at 10 μM induced over a 3-fold increase in apoptotic cells compared with non-treated cells.

[8] = test system: MiaPaCa-2 pancreatic cancer cells; experiment: Apoptosis assay (Annexin V or TUNEL); assay type: cell-based
Method: as §2

[9] = molecular target: T1, aurora-2 kinase (Homo sapiens, UniProt O14965); experiment: Aurora-2 kinase inhibition assay (Kinase-Glo); assay type: biochemical; conditions: for degree of inhibition of aurora-2 kinase activity (rank among tested compounds): 20 μM, FIG. 10; for IC50: aurora-2 kinase, FIG. 11
T1 construct: purchased Imgenex, San Diego, Calif; host or cells: sf9 cells
T1 sequence (O14965 1-403): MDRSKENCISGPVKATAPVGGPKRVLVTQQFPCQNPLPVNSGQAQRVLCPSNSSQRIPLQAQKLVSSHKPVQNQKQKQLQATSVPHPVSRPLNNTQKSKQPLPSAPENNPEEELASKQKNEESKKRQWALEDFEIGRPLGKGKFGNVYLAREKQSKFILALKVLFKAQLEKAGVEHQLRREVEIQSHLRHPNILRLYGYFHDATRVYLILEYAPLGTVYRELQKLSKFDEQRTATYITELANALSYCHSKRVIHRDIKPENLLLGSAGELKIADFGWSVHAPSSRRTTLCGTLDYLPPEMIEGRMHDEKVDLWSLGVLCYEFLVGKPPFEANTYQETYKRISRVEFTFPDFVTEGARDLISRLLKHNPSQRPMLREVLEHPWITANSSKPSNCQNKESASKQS
Method: In this assay kinase activity is determined by quantifying the amount of ATP remaining in solution following the kinase reaction by measuring the light units (LU) produced by luciferase using a luminometer. Percent inhibition was determined for individual compounds by comparing luminometer readings of drug-treated reactions to controls containing no drug (DMSO control) and no Aurora-2 enzyme (ATP control) in the following equation: […]
In a 50 μl reaction, recombinant aurora-2 kinase produced in sf9 cells (Imgenex, San Diego, Calif.) was incubated at 30° C. for two hours with 62.5 μM Kemptide (Calbiochem, San Diego, Calif.), 3 μM ATP (Invitrogen, Carlsbad, Calif.) and kinase reaction buffer (40 mM Tris-HCl, 10 mM MgCl2 and 0.1 μg/μl bovine serum albumin (BSA)). This reaction was carried out in the presence of drug substances, which had been previously diluted to desired concentrations in DMSO. After incubation, 50 μl of Kinase-Glo® (Promega, Inc., Madison, Wis.) solution was added to each reaction mixture and allowed to equilibrate for 10 minutes at room temperature. Kinase-Glo solution contains luciferase enzyme and luciferin, which react with ATP to produce light. Kinase activity is determined by quantifying the amount of ATP remaining in solution following the kinase reaction by measuring the light units (LU) produced by luciferase using a luminometer (PerkinElmer, Boston, Mass.).

[10] = molecular target: c-Kit (Homo sapiens, UniProt P10721); experiment: c-kit kinase inhibitory activity (stated in Example 32); assay type: biochemical
Chain of c-Kit (P10721 26-976): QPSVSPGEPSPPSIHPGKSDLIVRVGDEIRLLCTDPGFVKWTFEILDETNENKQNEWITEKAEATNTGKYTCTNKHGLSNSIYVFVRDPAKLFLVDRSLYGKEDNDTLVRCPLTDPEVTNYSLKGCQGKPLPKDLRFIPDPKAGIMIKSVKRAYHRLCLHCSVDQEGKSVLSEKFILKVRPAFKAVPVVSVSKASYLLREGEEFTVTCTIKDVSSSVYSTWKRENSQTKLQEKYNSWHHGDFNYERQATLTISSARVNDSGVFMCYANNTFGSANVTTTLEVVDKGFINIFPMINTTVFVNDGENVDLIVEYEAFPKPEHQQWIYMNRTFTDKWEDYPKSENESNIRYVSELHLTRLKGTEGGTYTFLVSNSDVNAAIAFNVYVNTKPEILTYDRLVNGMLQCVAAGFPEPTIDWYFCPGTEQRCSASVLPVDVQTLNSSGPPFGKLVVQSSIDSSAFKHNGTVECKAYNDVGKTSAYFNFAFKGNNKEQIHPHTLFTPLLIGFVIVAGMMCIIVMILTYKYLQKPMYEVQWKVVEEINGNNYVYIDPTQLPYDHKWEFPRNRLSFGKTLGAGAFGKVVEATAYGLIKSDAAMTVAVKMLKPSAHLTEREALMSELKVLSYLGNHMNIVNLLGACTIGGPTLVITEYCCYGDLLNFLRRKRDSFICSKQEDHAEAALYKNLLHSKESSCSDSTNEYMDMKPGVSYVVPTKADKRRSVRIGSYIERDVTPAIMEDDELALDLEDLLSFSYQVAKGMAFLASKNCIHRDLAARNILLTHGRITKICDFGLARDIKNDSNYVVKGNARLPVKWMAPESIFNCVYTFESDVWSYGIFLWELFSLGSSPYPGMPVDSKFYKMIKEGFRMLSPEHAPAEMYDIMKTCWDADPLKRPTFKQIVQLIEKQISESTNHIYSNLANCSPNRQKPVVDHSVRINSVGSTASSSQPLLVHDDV

aurora-2 kinase inhibitory activity (in words) [9]	degree of inhibition of aurora-2 kinase activity (rank among tested compounds) [9]	IC50 [9] [µM]	aurora-2 kinase inhibitory activity (in words) ([9]; listed as II-2-6)	inhibitory activity against c-kit kinase (in words) [10]	SMILES	apoptosis (sub-G1 peak) [1]	apoptosis (sub-G1 peak) [2]	IC50 [3] [µM]	activity against mutant forms of PDGFR (in words) [4]	IC50 [5] [µM]	phosphorylation of Akt ([6]; NIH 3T3, 4 hours, agent alone)	phosphorylation of Akt ([6]; NIH 3T3, MP-470 in combination with Tarceva®)	increase in apoptotic cells compared with non-treated cells [7] [fold]	apoptosis ([8]; MiaPaCa-2, 1 μM) [%]	apoptosis ([8]; MiaPaCa-2, 100 μM) [%]
					S=C(NCc1ccc2c(c1)OCO2)N1CCN(c2ncnc3c2oc2ccccc23)CC1 [HPK56, 4-Benzo[4,5]furo[3,2-d]pyrimidin-4-yl-piperazine-1-carbothioic acid (benzo[1,3]dioxol-5-ylmethyl)-amide]	induced apoptosis	induced apoptosis	~5	low nanomolar	2.1 to 3	reduced	reduced	> 3	71	81.4
particularly effective inhibitors	highest inhibition	0.9	low nanomolar	low μM	COc1cc2[nH]c3ncnc(N4CCN(C(=S)Nc5ccc(S(=O)(=O)Nc6ncccn6)cc5)CC4)c3c2cc1OC [HPK62, 4-(6,7-Dimethoxy-9H-1,3,9-triaza-fluoren-4-yl)-piperazine-1-carbothioic acid [4-(pyrimidin-2-ylsulfamoyl)-phenyl]-amide]										
particularly effective inhibitors	second highest inhibition	4.7			COc1cc2ncnc(N3CCN(C(=S)Nc4ccc(S(=O)(=O)Nc5ncccn5)cc4)CC3)c2cc1OC [HPK16, 4-(6,7-Dimethoxy-quinazolin-4-yl)-piperazine-1-carbothioic acid [4-(pyrimidin-2-ylsulfamoly)-phenyl]-amide]										
